Laboratory results taken from the NIST ThermoML archive (doi:10.1016/j.jct.2019.04.017).

Assay: xn = mol fraction of the nth substance listed
Conditions: 96 kPa, Liquid; for electrical conductivity: Frequency=0.001 MHz, Alternating current cell with electrodes; for viscosity: Cone and plate viscometry

C1CCC2=NCCCN2CC1 [1,8-diaza-7-bicyclo[5.4.0]undecene] + OCC(O)CO
Conditions	electrical conductivity, 308.1 K [S/m]	electrical conductivity, 313.1 K [S/m]	electrical conductivity, 318.1 K [S/m]	electrical conductivity, 323.1 K [S/m]	electrical conductivity, 328.1 K [S/m]	viscosity, 318.1 K [mPa·s]	viscosity, 328.1 K [mPa·s]
x1 = 0.0501	–	–	–	–	–	294.1	152.2
x1 = 0.0502	–	0.0666	0.0795	0.0955	0.11	–	–
x1 = 0.0909	–	–	–	–	–	345.9	175
x1 = 0.0914	–	0.0785	0.0971	0.118	0.132	–	–
x1 = 0.1	–	–	0.0947	–	0.132	343	177.4
x1 = 0.1115	0.0567	0.0761	0.0924	0.107	0.129	–	–
x1 = 0.1266	0.0543	0.0699	0.0877	0.101	0.126	–	–
x1 = 0.1667	–	–	–	–	–	359.5	182.5
x1 = 0.1672	0.0468	0.0613	0.0735	0.0882	0.103	–	–
x1 = 0.2	0.0398	0.0497	0.0601	0.071	0.0859	370.7	184.3
x1 = 0.2153	–	–	–	–	–	376.5	186.8
x1 = 0.2306	–	–	–	–	–	355.8	177.8
x1 = 0.2504	0.0263	0.0335	0.041	0.0491	0.0585	–	–
x1 = 0.287	0.0194	0.0245	0.0303	0.0358	0.0432	–	–
x1 = 0.3059	–	–	–	–	–	341.7	159.5
x1 = 0.3333	–	–	–	–	–	316.5	155
x1 = 0.3338	0.0137	0.0158	0.0192	0.0233	0.0271	–	–
x1 = 0.4003	0.00571	0.00702	0.00895	0.0107	0.0131	–	–
x1 = 0.4011	–	–	–	–	–	279.6	138.5
x1 = 0.5	0.00128	0.00169	0.00221	0.00279	0.00347	223.8	105.4
x1 = 0.5632	–	–	–	–	–	169.8	83.62
x1 = 0.5656	0.000502	0.000644	0.000939	0.00113	0.0015	–	–
x1 = 0.625	–	–	–	–	–	109	57.48
x1 = 0.6255	0.000251	0.00034	0.000466	0.000604	0.0008	–	–
x1 = 0.75	0.000346	–	0.000559	–	0.000826	43.75	26.15
x1 = 0.753	0.000346	0.000447	0.000559	0.000667	0.000826	–	–
x1 = 0.8333	0.000614	–	0.00087	–	0.00115	20.71	13.46
x1 = 0.8334	0.000614	0.00076	0.00087	0.00102	0.00115	–	–
x1 = 0.9094	0.000788	0.000915	0.00101	0.00111	0.0012	–	–
x1 = 0.95	0.000791	0.000857	0.000949	0.00104	0.00112	–	–
x1 = 0.975	0.000668	0.000719	0.000789	0.000841	0.000928	–	–
x1 = 1	0.00032	0.000356	0.000382	0.000423	0.000444	6.08	4.91
